Assay results as given in patent US8609814B2, “Modified globin proteins with altered electron transport pathway” (University of Essex Enterprises Limited, priority 2007, dated 2013).

B1: myoglobin: myoglobin in its ferryl oxidation state, two site model based on FIGS. 1 and 2 data (protein, UniProt P02144 2-154, looked up)
Myoglobin: GLSDGEWQLVLNVWGKVEADIPGHGQEVLIRLFKGHPETLEKFDKFKHLKSEDEMKASEDLKKHGATVLTALGGILKKKGHHEAEIKPLAQSHATKHKIPVKYLEFISECIIQVLQSKHPGDFGADAQGAMNKALELFRKDMASNYKELGFQG
modifications: ferryl oxidation state
B2: Horse myoglobin: ferric horse myoglobin from Sigma-Aldrich, further purified by gel filtration (protein, UniProt P68082 2-154, looked up)
Myoglobin: GLSDGEWQQVLNVWGKVEADIAGHGQEVLIRLFTGHPETLEKFDKFKHLKTEAEMKASEDLKKHGTVVLTALGGILKKKGHHEAELKPLAQSHATKHKIPIKYLEFISDAIIHVLHSKHPGDFGADAQGAMTKALELFRNDIAAKYKELGFQG
modifications: ferric
notes: ferric horse myoglobin from Sigma-Aldrich, further purified by gel filtration

Columns and labels:
[1] = ferryl human haemoglobin reduction kinetics by ascorbate; format: biochemical; settings: reductant ascorbate; 10 μM ferryl protein; sodium phosphate pH 7.4; double exponential fit
Text: Recombinant human haemoglobin was reacted with peroxide and the kinetics of ferryl haem reduction by ascorbate determined as described in example 1. The time course of ferryl haem reduction is not single exponential, as observed with myoglobin, but can be described using a double exponential function that generates two rate constants, one representing the observed rate constant for ferryl reduction of the alpha subunit and one representing the observed rate constant for ferryl reduction of the beta subunit.

[2] = ferryl myoglobin reduction kinetics by deferiprone; format: biochemical; settings: for concentration dependence of ferryl reduction rate constant (high affinity through-protein electron transfer pathway): reductant deferiprone, ferryl myoglobin 10 μM, sodium phosphate pH 7.4, 25° C.
Method: In this example the kinetics of the reduction of ferryl haem from myoglobin from different species to ferric haem protein were examined kinetically to determine the presence or absence of a high affinity-through protein pathway. Following the procedure, ferric horse myoglobin from Sigma-Aldrich (Poole, Dorset, UK, further purified by gel filtration), or recombinant ferric Aplysia myoglobin Mb (20 μM) in 5 mM sodium phosphate pH 7.4 was reacted with H2O2 (20 μM) at 25° C. for 15 min. At this time conversion of ferric myoglobin to ferryl myoglobin was greater than 95% as measured by addition of sodium sulfide (1 mM). Catalase (10 nM) was added to remove unreacted H2O2 and was left to react for a further 1 min. At the pH used the ferryl haem protein is stable for several hours. Reductant was then added in 0.1M sodium phosphate pH 7.4 in a 1:1 volume ratio so that final concentration of ferryl myoglobin was 10 μM. The pH may be ‘jumped’ to other values where the ferryl haem is unstable using other strong buffers (e.g. 0.1M sodium acetate, pH 5). The optical spectrum was followed until reaction was complete. The time course (425 nm-408 nm) was fitted to a single exponential function using the least squares method. These rate constants were then plotted as a function of reductant concentration and this profile fitted (least squares method) to a double rectangular hyperbola (FIG. 1):
Where ka and kb are the maximum rates for each hyperbola and KD1 and KD2 are the dissociation constants, S is the concentration of the reductant and AR is the rate constant for ferryl auto-reduction.
Wild-type and recombinant sperm whale myoglobin and recombinant Tyr103>Phe sperm whale myoglobin were reacted with peroxide and the kinetics of ferryl haem reduction by deferiprone determined as described in example 1. The through-protein electron transfer pathway, evident in wild type sperm whale myoglobin, is not observed in the Tyr103>Phe mutant (FIG. 2).

Molecule	concentration dependence of ferryl reduction rate constant (high affinity through-protein electron transfer pathway) [2]	also measured
wild type ferryl human haemoglobin: recombinant wild type human haemoglobin, alpha and beta subunits		concentration dependence of ferryl reduction rate constant, alpha subunit [1]: double rectangular hyperbola concentration dependence
wild type sperm whale myoglobin: wild-type recombinant sperm whale myoglobin	evident	
Tyr103>Phe mutant: recombinant Tyr103>Phe sperm whale myoglobin	not observed	
B1		kmax, transfer of an electron through the protein to the ferryl haem iron (high affinity site) ([2]; two site model of FIGS. 1 and 2 data, site at or close to Tyr103): ≈ 0.01 s^−1
B2	shows a double rectangular hyperbola concentration dependence	
